Data: ChEMBL document CHEMBL1134712, “2-Aryl indole NK1 receptor antagonists: optimisation of indole substitution” (Bioorg Med Chem Lett, 2001)
pIC50: −log10 of the molar value.

What was measured:
Substance-P receptor = Substance-P receptor (Homo sapiens, UniProt P25103); assay: Concentration required for displacement of [125I]-labeled substance P from cloned hNK1 receptor expressed in CHO cells; format: cell-based
Gerbillinae [1] = assay: Percent inhibition of gerbil foot-tapping at 1 mg/kg, iv after pre-treatment time of 2 hr; format: functional
Rattus norvegicus [2] = species on record: Rattus norvegicus; assay: Hepatic portal AUC was determined by pharmacokinetic study conducted in portal vein cannulated rats; format: ADME, organism-based; conditions: in vivo
Gerbillinae [3] = assay: Percent inhibition of foot-tapping at 1 mg/kg, iv after pre-treatment time of 2 hr […]; format: functional
Gerbillinae [4] = assay: Percent inhibition of gerbil foot-tapping at 1 mg/kg, iv immediately following pre-treatment […]; format: functional
Rattus norvegicus [5] = species on record: Rattus norvegicus; assay: Systemic AUC was determined by pharmacokinetic study conducted in portal vein cannulated rats; format: ADME, organism-based; conditions: in vivo
Gerbillinae [6] = assay: In vivo inhibitory dose determined in the gerbil foot-tapping assay after intravenous administration; format: functional; conditions: read-out: ID50 (the source's name)
[7] = Plasma clearance rate determined in rats; format: ADME, organism-based; conditions: rat, read-out: Clearance rate
[8] = Percent oral bioavailability determined in rats; format: ADME, organism-based; conditions: rat, in vivo, read-out: Bioavailabiility

Substance-P receptor, sequence (P25103 whole entry): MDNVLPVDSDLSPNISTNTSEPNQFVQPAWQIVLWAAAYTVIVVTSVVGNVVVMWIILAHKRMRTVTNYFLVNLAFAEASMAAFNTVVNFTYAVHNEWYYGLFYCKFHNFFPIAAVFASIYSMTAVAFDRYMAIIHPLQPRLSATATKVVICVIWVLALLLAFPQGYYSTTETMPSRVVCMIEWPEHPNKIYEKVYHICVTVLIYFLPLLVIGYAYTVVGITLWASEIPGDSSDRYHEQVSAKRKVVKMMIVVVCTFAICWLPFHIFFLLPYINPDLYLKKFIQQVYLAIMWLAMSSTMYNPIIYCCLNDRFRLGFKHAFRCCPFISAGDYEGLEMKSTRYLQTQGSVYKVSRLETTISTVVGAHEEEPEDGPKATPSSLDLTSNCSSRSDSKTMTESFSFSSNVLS

| pIC50 (Substance-P receptor) | Compound | further results |
| --- | --- | --- |
| 8.48 | Cn1c(-c2ccc(Cl)cc2)c(CCC(=O)N2CCC(O)(Cc3ccccc3)CC2)c2cc(N3CCCCC3)ccc21 | – |
| 8.77 | Cn1c(-c2ccc(Cl)cc2)c(CCC(=O)N2CCC(O)(Cc3ccccc3)CC2)c2cc(-c3ccccn3)ccc21 | – |
| 8.26 | Cn1c(-c2ccc(Cl)cc2)c(CCC(=O)N2CCC(O)(Cc3ccccc3)CC2)c2cc(-c3ccncc3)ccc21 | – |
| 7.39 | Cn1c(-c2ccc(Cl)cc2)c(CCC(=O)N2CCC(O)(Cc3ccccc3)CC2)c2cnccc21 | – |
| 9.57 | C=Cc1ccc2c(c1)c(CCC(=O)N1CCC(O)(Cc3ccccc3)CC1)c(-c1ccc(Cl)cc1)n2C | – |
| 8.05 | COc1ccccc1N1CCN(C(=O)CCc2c(-c3ccc(Cl)cc3)[nH]c3ccc(OC(F)(F)F)cc23)CC1 | – |
| 6.02 | COc1ccccc1N1CCN(C(=O)CCc2c(-c3ccc(Cl)cc3)[nH]c3cccc(Cl)c23)CC1 | – |
| 9.72 | CC(=O)c1ccc2c(c1)c(CCC(=O)N1CCC(O)(Cc3ccccc3)CC1)c(-c1ccc(Cl)cc1)n2C | inhibition in vivo at 1 mg/kg (Gerbillinae [1]): 14% |
| 8.20 | Cn1c(-c2ccc(Cl)cc2)c(CCC(=O)N2CCC(O)(Cc3ccccc3)CC2)c2cc(N3CCOCC3)ccc21 | – |
| 8.64 | Cn1c(-c2ccc(Cl)cc2)c(CCC(=O)N2CCC(O)(Cc3ccccc3)CC2)c2cc(-n3cccc3)ccc21 | – |
| 9.11 | O=C(CCc1c(-c2ccc(Cl)cc2)nc2ccc(Cl)cn12)N1CCC(O)(Cc2ccccc2)CC1 | – |
| 7.51 | COc1ccccc1N1CCN(C(=O)CCc2c(-c3ccc(Cl)cc3)[nH]c3ccccc23)CC1 | – |
| 7.06 | COc1ccccc1N1CCN(C(=O)CCc2c(-c3ccccc3)[nH]c3ccc(F)cc23)CC1 | – |
| 8.59 | Cn1c(-c2ccc(Cl)cc2)c(CCC(=O)N2CCC(O)(Cc3ccccc3)CC2)c2nc(Cl)ccc21 | – |
| 8.31 | COc1ccccc1N1CCN(C(=O)CCc2c(-c3ccc(Cl)cc3)[nH]c3cc(Cl)ccc23)CC1 | – |
| 9.00 | COc1ccccc1N1CCN(C(=O)CCc2c(-c3ccc(Br)cc3)[nH]c3ccc(C)cc23)CC1 | – |
| 7.85 | COc1ccccc1N1CCN(C(=O)CCc2c(-c3ccc(Cl)cc3)[nH]c3c(Cl)cc(Cl)cc23)CC1 | – |
| 9.05 | COc1ccccc1N1CCN(C(=O)CCc2c(-c3ccc(Cl)cc3)[nH]c3ccc(Cl)cc23)CC1 | – |
| 8.26 | Cn1c(-c2ccc(Cl)cc2)c(CCC(=O)N2CCC(O)(Cc3ccccc3)CC2)c2cc(-c3cccnc3)ccc21 | – |
| 9.82 | Cn1c(-c2ccc(Cl)cc2)c(CCC(=O)N2CCC(O)(Cc3ccccc3)CC2)c2cc(Cl)cnc21 | AUC (Rattus norvegicus [2]): 96.8 ng·h/mL; inhibition in vivo at 1 mg/kg (Gerbillinae [3]): 10%; inhibition in vivo at 1 mg/kg (Gerbillinae [4]): 100%; AUC (Rattus norvegicus [5]): 8 ng·h/mL |
| 8.25 | COc1ccccc1N1CCN(C(=O)CCc2c(-c3ccccc3)[nH]c3ccc(Cl)cc23)CC1 | – |
| 9.66 | Cn1c(-c2ccc(Cl)cc2)c(CCC(=O)N2CCC(O)(Cc3ccccc3)CC2)c2cc(Cl)ncc21 | – |
| 9.80 | Cn1c(-c2ccc(Cl)cc2)c(CCC(=O)N2CCC(O)(Cc3ccccc3)CC2)c2cc(Cl)ccc21 | AUC (Rattus norvegicus [2]): 24.7 ng·h/mL; ED50 (Gerbillinae [6]): 0.3 mg/kg; clearance [7]: 31 mL/min/kg; bioavailability [8]: 2.3%; AUC (Rattus norvegicus [5]): < 4 ng·h/mL |
| 6.24 | COc1ccccc1N1CCN(C(=O)CCc2c(-c3ccc(Cl)cc3)[nH]c3cc(Cl)cc(Cl)c23)CC1 | – |
| 9.10 | Cn1c(-c2ccc(Cl)cc2)c(CCC(=O)N2CCC(O)(Cc3ccccc3)CC2)c2cc(-c3ccco3)ccc21 | – |
| 9.22 | COc1ccccc1N1CCN(C(=O)CCc2c(-c3ccc(Cl)cc3)[nH]c3ccc(C)cc23)CC1 | – |
| 9.66 | Cn1c(-c2ccc(Cl)cc2)c(CCC(=O)N2CCC(O)(Cc3ccccc3)CC2)c2cc(Br)ccc21 | – |
